One data set has as its system hPASMCs. Briefly: hPASMC proliferation on fibronectin-coated plates. The data set is classed as cell-based, human. To be noted: fibronectin-coated 96 well plate, up to 5 days. As for the experimental part:
Antibody integrin α5β1 inhibitors were evaluated to determine whether integrin α5β1 inhibitors (e.g., P1D6 antibody or M200 antibody) could impair proliferation. Cells were seeded at 3000 cells/well in a 96 well plate coated with fibronectin. The next day integrin α5β1 inhibitor treatments were added and proliferation was monitored for up to 5 days.

The next data set relates to PAB rats. Briefly: Pulmonary Arterial Banding (PAB) rat model. The data set is classed as in vivo. As for the experimental part: Animals were divided into three study groups as follows: • (1) Control group/Sham (n=5) • (2) PAB+PBS vehicle orally twice a day (BID) (n=10) • (3) PAB+SMi at 100 mpk orally BID (n=10)
Pulmonary arterial constriction was surgically performed in rats at day 0. Beginning in week 4 following surgery, animals were exposed to vehicle or SMi treatment. Weekly echocardiography was performed from surgery to week 10. After a total of 10 weeks, animals were subjected to RV catheterization.
PAB rats were subjected to right heart catheterization (RHC) (using standard techniques and while the subject is in steady state). Treatment with integrin α5β1 inhibitor, SMi improved cardiac output, stroke volume, RVSP and RVEPD.

In another data set the test system is Human PAH-RVFbs. Briefly: PAH-RVFbs proliferation and activation. The data set is classed as cell-based. To be noted: 0.25 μM, 1 μM, and 4 μM. As for the experimental part:
PAH patient samples were assessed for expression of fibronectin binding integrins. […] Human PAH-RVFbs were treated with integrin α5β1 inhibitor SMi at 0.25 μM, 1 μM, and 4 μM. […] (FIGS. 22A and 22B).

Another data set has as its system MCT rats. Put plainly: Monocrotaline (MCT) rat pulmonary hypertension model. The data set is classed as in vivo. As for the experimental part: MCT Animals were divided into study groups as follows: • (1) Non-MCT vehicle orally twice a day (BID) (n=6) • (2) MCT+PBS vehicle orally twice a day (BID) (n=8) • (3) MCT+SMi at 100 mpk orally BID (n=8)
MCT (60 mg/kg) was administered by subcutaneous injection. Animals were exposed to vehicle or SMi treatment for 2 weeks. Blood, RV and lung analysis was performed. Cells were assessed for expression of EVG, αSMA, PCNA, and C3C. […] FIG. 12A-12D show exemplary results of treatment with SMi in MCT rats. Occlusion score (FIG. 12A), vascular remodeling (FIG. 12B), apoptosis (FIG. 12C) and proliferation (FIG. 12D) were measured.
MCT animals were treated with SMi alone or in combination with SoC therapy (Macitentan (1 mg/kg)+Tadalafil (10 mg/kg) daily). MCT Animals were divided into study groups as follows: • (1) Non-MCT vehicle orally twice a day (BID) (n=6) • (2) MCT+PBS vehicle orally twice a day (BID) (n=8) • (3) MCT+SMi at 100 mpk orally BID (n=8) • (4) MCT+SMi at 100 mpk orally BID+SoC (Macitentan (1 mg/kg)+Tadalafil (10 mg/kg) daily (n=8).
MCT (60 mg/kg) was administered by subcutaneous injection at day 0. Beginning in week 3, animals were exposed to vehicle or SMi treatment for 2 weeks. (FIG. 23A) Blood, RV and lung analysis was performed.
To determine the selectivity of SMi for α5β1, MCT animals were prepared as described above and treated with SMi or a dual inhibitor of α5β1/αvβ1 (MRT).

Another data set deals with SuHx rats. Briefly: Sugen/Hypoxia (SuHx) induced PAH rat model. It is filed as in vivo. As for the experimental part: Broad-spectrum pharmacological inhibition of α5β1 improves hemodynamics and vascular remodeling in Su/Hx rats with established PAH alone or in combination with standard of care.
Animals were injected with 20 mg/kg Sugen 5416 at day 0 and subjected to hypoxia conditions (10% oxygen) for 3 weeks. Echocardiography was performed at the start of treatment with integrin α5β1 inhibitors at week 3 and at week 5. Right heart catheterization was performed at the end of week 5. Tissues were harvested for analysis.

The next data set relates to MCT animals. Briefly: MCT animals with a cardiac defect, echocardiography. The following applies: 100 mg/Kg PO BID, Day 14 to Day 27, PH phenotype not induced. The data set is classed as in vivo. As for the experimental part:
To test the impact of SMi on cardiac function, MCT animals with a cardiac defect were treated with SMi or sildenafil as follows (1) Non-MCT vehicle PO BID; (2) MCT+vehicle PO BID (3) MCT+SMi 100 mg/Kg PO BID (4) MCT+sildenafil 10 mg/Kg PO BID (5) MCT+sildenafil 30 mg/Kg PO BID (6) MCT+sildenafil 100 mg/Kg PO BID. Pulmonary hypertension phenotype was not induced in this study (MCT causes both vascular and cardiac injury). Treatment with SMi, vehicle or sildenafil was administered, twice a day, from Day 14 to Day 27. Echocardiogram monitoring of the progression of the disease was carried out on Day 0, Day 14 and on surgery day (Day 28) for all the animals. Blood samples were taken on Day 0, Day 14 and Day 28. Pulmonary artery maximum velocity, cardiac output, stroke volume, right ventricle anterior wall thickness and pulmonary artery acceleration time were determined. […] The data were used to calculate the cardiac output and the stroke volume as follows: The cardiac output was calculated using the following formula (JF Lewis et al. 1984): Cardiac output=heart rate×VTI((pulmonary artery diameter^2×3.1416)/4) The stroke volume was calculated using the following formula: Stroke volume=cardiac output/heart rate

Data set [1] relates to Primary rat cardiomyocytes. Briefly: PE-induced cardiomyocyte hypertrophy. The following applies: 100 μM PE; 0.25 μM, 1 μM, and 4 μM. It is filed as cell-based. As for the experimental part:
Primary rat cardiomyocytes were treated with 50 μM, 100 μM, or 200 μM, phenylephrine (PE). Expression of ITGα5, ITGαV, ITGβ1, ITGβ3, ITGβ5 were determined by western blot (FIG. 21A). Cells treated with 100 μM PE were simultaneously exposed to integrin α5β1 inhibitor SMi at 0.25 μM, 1 μM, and 4 μM.

The subject of a further data set is SuHx mice. Briefly: Sugen/hypoxia (SuHx) mice model of PAH. The data set is classed as in vivo, mouse. To be noted: SMi 100 mpk PO BID, 339.1 10 mpk IP 3x week. As for the experimental part:
SuHx treated mice were prepared as described above and treated with integrin α5β1 antibody inhibitors (e.g., anti-mouse integrin α5β1 clone 339.1) or SMi. anti-mouse integrin α5β1 clone 339.1 is described in Bhaskar, V., Zhang, D., Fox, M. et al. A function blocking anti-mouse integrin α5β1 antibody inhibits angiogenesis and impedes tumor growth in vivo. J Transl Med 5, 61 (2007). doi.org/10.1186/1479-5876-5-61), which is hereby incorporated by reference in its entirety.
Mice were injected with 20 mg/kg Sugen 5416 (vascular endothelial growth factor receptor inhibitor) at day 0, day 7 and day 14 and subjected to hypoxia conditions (10% oxygen) for 3 weeks. Echocardiography was performed at the start of treatment with integrin α5β1 inhibitors at week 3 (e.g., day 21) and at the end of week 5. Right heart catheterization was performed at the end of week 5.
Cardiac function was measured including improved cardiac output, and stroke volume. Other features including media cell wall thickness, vascular remodeling, proliferation, and apoptosis were measured.
Mice were divided into the following treatment and control groups: • Control group (n=5) • Vehicle PO BID (n=10) • SMi 100 mpk PO BID (n=10) • Macitentan 15 mpk PO BID (n=15) • IgG isotype control10 mpk IP (3× week) (n=15) • 339.1 10 mpk IP (3× week) (n=15) • 339.1 10 mpk IP+Macitentan 15 mpk PO BID (n=15)

For a further data set, the system named is PAH-PASMCs. Briefly: Proliferation (Ki67) and apoptosis (annexin V) of PAH-PASMCs on Fb-coated plates. The following applies: 0.25 μM, 1 μM, and 4 μM on Fb-coated plates. It is filed as cell-based, human. As for the experimental part: Integrin α5β1 inhibitors (MRT, SMi, P1D6, or M200) were assessed for proliferation and apoptosis on Fb-coated plates. FIG. 5A-5C show exemplary proliferation (Ki67) and apoptosis (annexin V) of PAH-PASMCs treated with integrin α5β1 inhibitors (MRT, SMi, P1D6, or M200).
PAH-PASMCs were treated with integrin α5β1 inhibitor SMi at 0.25 μM, 1 μM, and 4 μM on Fb-coated plates. Cells were evaluated by Western blot analysis to determine expression levels of ITGα5, ITGαV, ITGβ1, p-FAK, MCM2, PLK1, p-ERK, ERK, PCNA and Survivin in hPASMCs (FIG. 6A-6B).

In data set [2] the target is integrin α5β1 on hPASMCs (human) (UniProt P08648). Briefly: cell-based or functional assay.
The target in data set [3] is rat α5β1 (cells expressing rat α5β1) (rat). Put plainly: cell-based or functional assay.
For data set [4] the following is noted: cited from earlier work.
The conditions of data set [5]: at room temperature; cited from earlier work.
Data set [6] addresses rat α5β1 (cells expressing rat α5β1) (rat, UniProt A0A0G2K1E2 94-1099; P49134 21-798). Briefly: cell-based or functional assay.

As usually defined, the half-life is the time needed for the level to fall by half in the phase considered.

Where two headings read alike, the source gives them in different places.

Chain of integrin α5β1 on hPASMCs (human) (P08648 42-1049, chain 1 of 2): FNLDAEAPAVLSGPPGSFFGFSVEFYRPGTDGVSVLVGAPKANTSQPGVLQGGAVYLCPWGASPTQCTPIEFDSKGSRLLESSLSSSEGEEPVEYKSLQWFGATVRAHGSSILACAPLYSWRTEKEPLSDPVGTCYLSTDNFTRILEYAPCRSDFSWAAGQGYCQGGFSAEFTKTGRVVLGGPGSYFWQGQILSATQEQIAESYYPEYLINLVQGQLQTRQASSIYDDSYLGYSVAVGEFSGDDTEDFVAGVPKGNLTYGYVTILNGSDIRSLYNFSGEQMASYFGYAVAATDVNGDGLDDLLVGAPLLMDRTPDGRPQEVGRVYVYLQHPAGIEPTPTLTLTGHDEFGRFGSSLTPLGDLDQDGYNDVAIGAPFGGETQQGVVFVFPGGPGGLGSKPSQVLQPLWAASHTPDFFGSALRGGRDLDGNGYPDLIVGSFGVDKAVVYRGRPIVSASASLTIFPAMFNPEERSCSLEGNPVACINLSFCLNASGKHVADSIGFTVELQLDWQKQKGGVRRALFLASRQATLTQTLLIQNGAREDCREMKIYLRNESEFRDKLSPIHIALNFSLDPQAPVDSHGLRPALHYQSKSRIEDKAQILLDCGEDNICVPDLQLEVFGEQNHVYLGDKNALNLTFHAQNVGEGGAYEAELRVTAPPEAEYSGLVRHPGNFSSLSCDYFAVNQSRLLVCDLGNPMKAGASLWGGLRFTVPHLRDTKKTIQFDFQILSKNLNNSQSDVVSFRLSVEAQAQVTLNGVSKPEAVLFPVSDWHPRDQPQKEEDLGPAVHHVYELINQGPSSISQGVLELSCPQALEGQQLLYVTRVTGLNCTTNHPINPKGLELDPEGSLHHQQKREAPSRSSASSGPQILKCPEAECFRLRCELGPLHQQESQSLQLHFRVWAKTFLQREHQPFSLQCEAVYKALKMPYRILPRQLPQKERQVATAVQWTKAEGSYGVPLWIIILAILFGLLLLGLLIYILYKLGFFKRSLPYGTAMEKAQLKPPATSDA
Chain of integrin α5β1 on hPASMCs (human) (P05556 21-798, chain 2 of 2, further chain): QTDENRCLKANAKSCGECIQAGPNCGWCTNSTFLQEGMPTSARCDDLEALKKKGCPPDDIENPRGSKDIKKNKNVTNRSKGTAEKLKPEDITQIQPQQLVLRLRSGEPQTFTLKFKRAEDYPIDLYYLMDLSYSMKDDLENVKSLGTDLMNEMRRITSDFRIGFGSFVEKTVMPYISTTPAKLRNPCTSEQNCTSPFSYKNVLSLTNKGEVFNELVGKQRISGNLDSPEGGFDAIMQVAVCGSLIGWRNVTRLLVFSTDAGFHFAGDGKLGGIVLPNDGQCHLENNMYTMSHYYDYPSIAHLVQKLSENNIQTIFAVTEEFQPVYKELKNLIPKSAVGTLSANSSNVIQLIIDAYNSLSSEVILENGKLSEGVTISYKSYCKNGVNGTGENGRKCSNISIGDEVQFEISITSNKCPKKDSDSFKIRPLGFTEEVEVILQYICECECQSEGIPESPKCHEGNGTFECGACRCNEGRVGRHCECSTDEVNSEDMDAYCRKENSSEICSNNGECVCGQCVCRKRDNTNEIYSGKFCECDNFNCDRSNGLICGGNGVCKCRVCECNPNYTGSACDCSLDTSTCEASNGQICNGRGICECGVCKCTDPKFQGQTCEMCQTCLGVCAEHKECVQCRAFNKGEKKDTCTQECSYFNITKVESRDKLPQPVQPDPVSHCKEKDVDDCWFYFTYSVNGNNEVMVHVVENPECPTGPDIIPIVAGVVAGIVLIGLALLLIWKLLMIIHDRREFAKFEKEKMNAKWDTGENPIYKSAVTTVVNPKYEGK

Regarding “M200: integrin α5β1 antibody, heavy chain SEQ ID NO: 1, light chain SEQ ID NO: 2”, the “proliferation of hPASMCs” value in the data set on hPASMCs is “reduced proliferation”.

`Cc1nn(C)c2c(C(C(=O)O)N3CC(OCCCCc4ccc5c(n4)NCCC5)C3)cccc12` (stereo not drawn) [SMi]: in the data set with PAB rats (100 mpk orally BID), the “hypertrophy and right ventricle (RV) fibrosis” value is recorded as “improved”. Also, in the data set on PAB rats (echocardiography), the “cardiac function over time compared to vehicle control” value was “directly improved cardiac function”. In addition, in the data set with PAB rats (right heart catheterization), the RVEPD result is on record as “improved”, the RVSP result is “improved”, the cardiac output result is “improved” and the stroke volume entry is “improved”. The “PAH-RVFbs proliferation and activation” value in the data set with Human PAH-RVFbs is “decreases PAH-RVFbs proliferation and activation in a dose dependent manner”. For the same molecule, the “cardiac function vascular remodeling (EVG, media wall thickness, mPAP, cardiac output, RVFAC)” value in the data set with MCT rats is recorded as “improved cardiac function vascular remodeling”. Besides, in the data set on MCT rats (100 mpk orally BID, 2 weeks), the vascular remodeling result is given as “improved vascular remodeling”. Moreover, the “hypertrophy and right ventricle (RV) fibrosis” value in the data set with MCT rats (SMi alone or in combination with SoCs) is on record as “improved”. The vascular remodeling entry in the data set with MCT rats (SMi alone or with Maci (1 mg/kg) + Tada (10 mg/kg)) is given as “improved vascular remodeling”. For the same molecule, in the data set on SuHx rats (SMi and/or SoCs), the apoptosis result is listed as “improved”, the fibrosis entry is reported as “reduced”, the hypertrophy result is given as “reduced” and the “media cell wall thickness” value is reported as “improved”. For the same molecule, in the data set with SuHx rats (SMi and/or SoCs), the proliferation entry was “improved”, the stroke volume entry is given as “improved” and the vascular remodeling result is “improved”. The cardiac output entry in the data set on SuHx rats (SMi and/or SoCs (Macitentan, Tadalafil)) is recorded as “improved”. In the data set with MCT animals, the cardiac output entry is listed as “considerable increase”. In addition, the “PE-induced adult rat cardiomyocytes hypertrophy” value in data set [1] was “prevents PE-induced adult rat cardiomyocytes hypertrophy”. Further, the “cardiac and vascular improvement” value in the data set with SuHx mice was “cardiac and vascular improvement”. Further, in the data set with PAH-PASMCs, the “apoptosis (annexin V)” value is listed as “increased apoptosis” and the “proliferation (Ki67)” value was “impaired proliferation”.

Consider P1D6 (antibody), for which the reduction of hPASMCs proliferation in [2] came to 70%. In data set [3], the IC50 (nM), cell adhesion assay was found to be 5.6 nM and the IC50 (ug/ml), cell adhesion assay amounted to 0.84 µg/mL.

Take `CCCCC[C@H](O)/C=C/[C@@H]1[C@H]2C/C(=C/CCCC(=O)O)O[C@H]2C[C@H]1O` [Flolan, epoprostenol]: in [4] (in vivo), the half-life was 0.05 to 0.083 h. In addition, the stability in data set [5] is on record as 8 h.

As to `CN1CC(=O)N2[C@H](c3ccc4c(c3)OCO4)c3[nH]c4ccccc4c3C[C@@H]2C1=O` [Tadalafil, tadalafil], in data set [4] (in patients with PAH), the half-life is 35 h.

B1: volociximab (M200) (antibody, human IgG4, kappa, V domains shown)
VH: QVQLKESGPGLVAPSQSLSITCTISGFSLTDYGVHWVRQPPGKGLEWLVVIWSDGSSTYNSALKSRMTIRKDNSKSQVFLIMNSLQTDDSAMYYCARHGTYYGMTTTGDALDYWGQGTSVTVSS
VL: QIVLTQSPAIMSASLGERVTMTCTASSSVSSNYLHWYQQKPGSAPNLWIYSTSNLASGVPARFSGSGSGTSYSLTISSMEAEDAATYYCHQYLRSPPTFGGGTKLEIKR
Turning to B1, in data set [6], the “IC50 (nM), cell adhesion assay” value was found to be 6.8 nM and the “IC50 (ug/ml), cell adhesion assay” value was 1 µg/mL.

These data come from patent US20250066485A1, “USE OF INTEGRIN a5b1 INHIBITORS IN THE TREATMENT OF PULMONARY HYPERTENSION AND HEART FAILURE” (Morphic Therapeutic, Inc., priority 2022, published 2025).
